The test system of assay [1] is PAI-1 production in normal human bronchial epithelial (NHBE) cells. The assay can be described thus: TGF-β1-induced PAI-1 gene expression and protein production in NHBE cells (real-time PCR, ELISA). Type of assay: cell-based. The following applies: for TGF-β1-induced PAI-1 protein production: 6 hours, NHBE. How it is done: Normal human bronchial epithelial (NHBE) cells were cultured, as previously described in Cho S H, Lee S H, Kato A, Takabayashi T, Kulka M, Shin S C, et al. Cross-talk between human mast cells and bronchial epithelial cells in plasminogen activator inhibitor-1 production via transforming growth factor-b1. Am J Respir Cell Mol Biol 2015; 52:88-95, herein incorporated by reference in its entirety into this disclosure. […] Cell pellets were used for real-time PCR, and cell-culture supernatants were used for PAI-1 protein ELISA.
The PAI-1 concentration in the blood of subjects and supernatants of NHBE cells was measured in duplicate by means of ELISA (Assay Pro, St Charles, Mo), as previously described in Cho et al. 2015, herein incorporated by reference in its entirety into this disclosure. For mRNA analysis of PAI-1 (Hs00167155_m1), quantitative real-time PCR was performed with the ViiA 7 Real-Time PCR System (Applied Biosystems, Foster City, Calif). Expression of glyceraldehyde-3-phosphate dehydrogenase (GAPDH; Hs02786624_g1) was used as an internal control for normalization. Cycling conditions were as follows: 50° C. for 2 minutes (hold) for 1 cycle, 95° C. for 10 minutes (hold) for 1 cycle, and 95° C. for 15 seconds and 60° C. for 1 minute (cycling) for 40 cycles. Relative gene expression was calculated by using the comparative 2^−ΔΔCT method.
To investigate the cellular mechanism of the soy isoflavone/PAI-1 link, the inventors treated cultured NHBE cells with TGF-β1 (2 ng/mL) for 6 hours with and without genistein pretreatment. There was a significant increase in PAI-1 mRNA and protein production (about 10-fold) after adding TGF-β1 (FIG. 1). […] Soy isoflavones reduce asthma exacerbation in high PAI-1 producing genotype. (FIG. 2)
There was a significant increase of the PAI-1 mRNA and protein production (about 10-fold) after adding the TGF-β1 (FIG. 5).
(In general: Quantitative PCR measures a nucleic acid by following its amplification.)

The subject of assay [2] is murine model of asthma (BALB/c mice). The assay can be described thus: Airway hyperresponsiveness (total respiratory system resistance, FlexiVent) in OVA murine model of asthma. Type of assay: in vivo, mouse. The following applies: summary. Here is the method:
Eight-week-old BALB/c mice were purchased from The Jackson Lab and housed in standard laboratory conditions (12/12-h light/dark cycle, 22-24° C., 40-60% humidity). Forty female mice were divided into four groups (namely, OVA+Veh, OVA+Bio300, PBS+Veh, PBS+Bio300). Genistein (Bio300, Humanetics Corp.) was administered to two of the groups in conjunction with either OVA or PBS. The mice in each group (n=10) were equally divided into two cages (5 mice/cage) to provide appropriate space for the mice. […]
From Day 14 to Day 28, the OVA+Bio300 and PBS+Bio300 groups received Bio300 (100 ul) by oral gavage every other day. […] On Day 29, airway hyperresponsiveness (AHR) was assessed and tissues were obtained for further analysis.
All mice were anesthetized with ketamine, tracheostomized, and mechanically ventilated with a FlexiVent system (SCIREQ, Flexivent, Scireq Inc., Montreal, Canada) as described in Choi et al., incorporated by reference in its entirety herein. […] Volume changes due to thoracic expansion and alterations in tracheal pressure were measured in response to challenges with increasing concentrations of methacholine (3, 6, 12, 25, and 50 mg/mL) and reported as total respiratory system resistance (Rrs).

The subject of a further assay is human rhinovirus (HRV). Particulars: compared with guideline-driven care alone; cited from earlier work.
For the next assay, the system named is pDCs. The following applies: cited from earlier work.

In the case of `O=c1c(-c2ccc(O)cc2)coc2cc(O)cc(O)c12` [genistein], in assay [1] (FIG. 5 legend), the “PAI-1 production from human bronchial EC and mast cells” value is “significantly reduces”. For the same molecule, the “TGF-β1-induced PAI-1 gene expression and protein production” value in assay [1] (NHBE cells, genistein pretreatment) is given as “significantly reduced”. Further, the “TGF-β1-induced PAI-1 protein production” value in assay [1] (genistein 1 μM pretreatment, TGF-β1 2 ng/ml) worked out at 360700 ± 10500 pg/mL; in assay [1] (genistein 5 μM pretreatment, TGF-β1 2 ng/ml) it was 306.0 ± 5.3 pg/mL; in assay [1] (genistein 5 mmol/L pretreatment, TGF-β1 2 ng/mL) it was 306.0 ± 5.3 pg/mL. Further, the “Allergic inflammation and airway hyperreactivity” value in assay [2] is “reduced allergic inflammation and improved airway hyperreactivity”.

In the case of “TGF-β1: recombinant human TGF-β1 (R&D Systems), stimulus of PAI-1 production [reference compound]”, the “Increase in PAI-1 mRNA and protein production” value in assay [1] (NHBE cells, TGF-β1 2 ng/mL for 6 hours) was “about 10 fold”.

Turning to “omalizumab: costly biological agent blocking IgE, administered by injection”, in the assay on human rhinovirus (HRV), the “Duration of HRV infections, viral shedding, and risk of HRV-related illness” value was “decreased”. Moreover, the “Interferon alpha production from pDCs” value in the assay on pDCs (ex vivo and in vivo treatment) was “restored”. Moreover, in the assay with pDCs (omalizumab treatment, previous study), the “Reduction of FcεRIα expression on pDCs” value is on record as “about 57%”.

The values above are taken from patent publication US20240139223A1, “SOY ISOFLAVONES FOR ASTHMA PREVENTION” (University of South Florida, priority 2021, published 2024).
